# Test results from patent US9333212B2, “Proteasome inhibitors as ovoprotective agents to shield the ovary from chemotherapy toxicity” (Wisconsin Alumni Research Foundation, priority 2013, dated 2016).
# “Also recorded” adds a separate entry of the source. Residues, ends and D or L forms follow the SMILES beside them. *: point of attachment. Cbz = O=C(OCc1ccccc1)*
# What was measured:
# rodent ovary = settings: in vivo; cited from earlier work
# [1] = test system: γH2AX phosphorylation, PTEN, phospho-AKT1, Caspase 3 in mouse ovary; assay: Western blots of ovarian lysates for cell response markers
# Protocol: Lysate Preparation and Western Blots. Ovaries were homogenized, protein quantified, and WBs were conducted previously described [9]. Blots were probed with rabbit anti-γH2AFX antibody (Abcam, 1:500), and mouse anti-β actin (Sigma, 1:10,000), rabbit anti-phospho AKT1 (Cell Signaling 1:1000), rabbit anti-PTEN (Cell Signaling 1:1000), and rabbit anti-Caspase 3 (Cell Signaling 1:1000. WBs were scanned and analyzed using the 5 LiCor Odyssey System (UW-Small Molecule Screening Facility) [9].
# Mice. […] Four-week old female CD1 mice were treated with 0.143 mg/kg Bort or vehicle control, followed by 20 mg/kg DXR (twice the human equivalent dose) or saline via intraperitoneal injection (200 μL total volume/injection) 1 hour later. Three mice were injected per time point, 2, 4, 6, 12, and 24 hours, as indicated. Mice were euthanized with CO2 per approved protocol, and ovaries were processed as previously described [13].
# To determine whether Bort prevents the cellular response to DXR insult, Western blots (WBs) of ovarian lysates were probed for cell response markers at 6 and 24 hrs post-injection.
# mouse ovarian follicles [2] = assay: TUNEL assay, follicular apoptotic index in mouse ovary; type: in vivo
# Excerpt: FIG. 5. […] Ovaries were harvested from treated mice 12 hrs post-DXR injection, fixed, and processed for the TUNEL assay. Apoptotic index measures the fraction of cells dying via apoptosis in each group. *p<0.05 one-way ANOVA n=4 mice.
# To determine whether Bort pretreatment prevents DXR-induced follicular apoptosis, ovaries were harvested from mice treated with control, DXR, or Bort+DXR, 12 hrs after chemotherapy administration. Ovaries were fixed and stained using the TUNEL assay. Follicles were scored as apoptotic if they contained ≧4 TUNEL-positive granulosa cells.
# TUNEL Staining. Apoptosis was detected utilizing ApopTag Plus Fluorescein In Situ Apoptosis Detection Kit as previously described. Nuclei were counterstained with 0.5 ug/mL Propidium Iodide. Apoptotic index was determined only counting follicles containing a visible oocyte; follicle types were differentiated by standard morphology and size ranges. Primary, secondary, and antral follicles were considered positive if they had ≧4 TUNEL-positive granulosa cells.
# To ascertain whether Bort pretreatment prevents DXR-induced follicular apoptosis, ovaries were harvested from mice treated with control vehicle, Bort, DXR, or Bort+DXR, 12 hrs after chemo administration.
# L1210 cells = settings: cited from earlier work
# female CD-1 mice = assay: Breeding trial: pup birth weight and litter size of treated female mice; type: in vivo, mouse
# Protocol: Both drugs were administered via i.p. injection. Female mice were then mated with proven fertile males starting at 8 weeks of age. Females were mated continuously with males, separated only for pup delivery, then re-mated immediately with rotated males. Pregnancy and litters were followed until females reached 8 months of age or became infertile.
# [3] = test system: mouse ovarian cells (granulosa, stromal/thecal cells, oocytes); assay: Neutral comet assay of dsDNA breaks in ovarian cells isolated from treated mice
# Protocol: The neutral comet assay was used to measure acute DXR-induced double-strand DNA breaks in an in vivo mouse model as previously described [32]. 4-week-old adolescent female CD1 mice were pre-treated with intraperitoneal (i.p.) injection of 0.143 mg/kg Bort 1 hr prior to 20 mg/kg DXR.
# Four-week old female CD1 mice were treated with 0.143 mg/kg Bort or vehicle control, followed by 20 mg/kg DXR (twice the human equivalent dose) or saline via intraperitoneal injection (200 μL total volume/injection) 1 hour later. Three mice were injected per time point, 2, 4, 6, 12, and 24 hours, as indicated.
# Neutral Comet Assay. Ovaries were processed to provide enriched populations of granulosa cells/oocytes, and stromal/thecal cells that were utilized in the neutral comet assay [9, 13]. At least 100 granulosa and stromal cells and 50 oocytes were imaged from blinded slides per time point per mouse (3 mice/replicate) [9, 13]. The comet moment to quantify DNA damage was scored using CometScore software. Data were normalized to control for each experiment to allow pooling across experiments.
# Four week-old adolescent mice were pretreated with 0.143 mg/kg Bort or vehicle control via i.p. injection 1 hour prior to 20 mg/kg DXR i.p. injection. The Bort dose corresponded to ⅓ the lowest human equivalent dose utilized in chemo regimens (0.43 mg/m2 vs. 1.3 mg/m2), while the DXR dose was double the standard human equivalent dose to allow direct imaging of DXR fluorescence in subsequent experiments.
# KK-15 granulosa cells = assay: Neutral comet assay in KK-15 cells pretreated with proteasome inhibitor before DXR; type: cell-based; settings: 1 h pretreatment, then 3 hr 50 nM DXR
# Protocol: FIG. 6. […] (A) Pretreating KK-15 cells for 1 h with the indicated Bortezomib doses prevented dsDNA breaks caused by 3 hr, 50 nM DXR treatment, as measured by the NCA. […] Bar graphs summarize comet moment data. Bortezomib (n=3, ***p<0.001), MG-132, (n=4, ***p<0.001) ANOVA with Bonferroni means comparison.
# (§1) KK-15 cells were pretreated with either Bort or MG-132, boronate and aldehyde inhibitors, respectively, for 1 hr prior to DXR.
# kidney = settings: by preserving Mcl-1 levels; cited from earlier work
# [4] = DXR accumulation in mouse ovary by autofluorescence (spectral confocal imaging); type: in vivo; settings: Bort pretreatment before DXR
# Excerpt: FIG. 11. […] A. Micrographs of mouse ovarian sections obtained by spectral confocal imaging (ex. 488 nm, em. given in panel B). Images are overlays of all collected emission wavelengths. Bar=40 μm. For print, images were adjusted equally to a threshold of 140 in Photoshop with no other image enhancements. B. Graph plots mean fluorescence intensity+/−SEM quantified from raw DXR fluorescence in ovarian sections representing the top, middle, and bottom third of the ovary. Emission profiles at 550-560 nm (cold finger) were not collected by the microscope to prevent direct detection of the excitation laser at that wavelength. Confocal parameters were identical from one sample to the next. DXR points are statistically significant from ctl and Bort-DXR with p<0.05, one-way ANOVA, Bonferroni means comparison.
# Fluorescence Microscopy. Images were collected using a Nikon A1 laser scanning microscope with a motorized stage to image the entire section at 400× magnification. Each spectral image was taken at the Z plane providing maximal signal in the section utilizing identical laser settings with the spectral scan head, exciting at 488 nm and collecting emissions from 520 nm through 720 nm at 10 nm intervals. […] Total DXR fluorescence was measured in each section image using Nikon Elements, quantifying fluorescent intensity at each emission wavelength.
# mouse ovarian follicles [5] = settings: previous characterization, cited from earlier work
# KK-15 cells = assay: DXR LD50 in KK-15 cells; type: cell-based
# Excerpt: as §1
# [6] = test system: mouse ovarian cells (granulosa, stromal/thecal cells, oocytes); settings: previous characterization, cited from earlier work
# [7] = in vivo; cited from earlier work
# [8] = 1 month post-DXR; cited from earlier work
# [9] = test system: cardiac-derived H9C2 cells; settings: cited from earlier work
# [10] = Bort pretreatment, 24 hrs post-injection
# [11] = Bort pretreatment vs DXR alone, 12 hrs post-DXR
smiles,measurement,setting,value
N.N.[Cl][Pt][Cl] [cisplatin],circulating and follicular anti-mullerian hormone (AMH) levels,rodent ovary,decreases circulating and follicular levels of anti-mullerian hormone (AMH)
same,pregnancy rates and pups per litter,rodent ovary,decreases pregnancy rates and pups per litter
"CC(C)C[C@H](NC(=O)[C@H](Cc1ccccc1)NC(=O)c1cnccn1)B(O)O [Bort, bortezomib]",DXR-induced γH2A.X phosphorylation,"[1]; 1 hr Bort pretreatment, 6 hrs post-DXR injection",attenuated DXR-induced γH2A.X phosphorylation; also recorded: attenuates γH2AX phosphorylation
same,DXR-induced PTEN protein reduction,"[1]; Bort pretreatment, 6 hrs post-injection",PTEN protein reduction was eliminated
same,DXR-induced decrease of full-length Caspase 3,[1]; [10],prevented
same,DXR-induced loss of pAKT1,[1]; [10],similarly prevented; also recorded: restored AKT1 phosphorylation to control levels
same,DXR-induced apoptosis in the mouse ovary / ovarian follicles,"mouse ovarian follicles [2]; 0.143 mg/kg Bort 1 hr before 20 mg/kg DXR, 12 hrs",attenuates DXR-induced apoptosis; also recorded: prevented DXR-induced apoptosis
same,antral follicle apoptotic index,mouse ovarian follicles [2]; [11],small decrease in the antral follicle apoptotic index; also recorded: did not prevent antral follicle apoptosis
same,primary follicle apoptosis (TUNEL),mouse ovarian follicles [2]; [11],decreased apoptosis in primary follicles; also recorded: appeared to decrease apoptosis in primary follicles
same,secondary follicle apoptosis (TUNEL),mouse ovarian follicles [2]; [11],levels not different from control; also recorded: significantly attenuated TUNEL signal in secondary follicles
same,DXR nuclear accumulation in L1210 cells,L1210 cells,prevent DXR nuclear accumulation
same,"pup weight, deviation from control",female CD-1 mice; 0.143 mg/kg Bortezomib 1 hour before 10 mg/kg DXR,≤ 6 % of control
same,"litter size, mating round 1","female CD-1 mice; Bort-DXR treated mice, round 1",8 pups
same,"litter size, mating round 6","female CD-1 mice; Bort-DXR treated mice, round 6, end of the trial",12 pups
same,"comet moment, stromal cells, deviation from control",[3]; 0.143 mg/kg Bort i.p. 1 hr before 20 mg/kg DXR,≤ 16 % of control
same,"comet moment, granulosa cells, deviation from control","[3]; 0.143 mg/kg Bort i.p. 1 hr before 20 mg/kg DXR, 2-24 hrs",≤ 10 % of control
same,DXR-induced DNA damage in stroma cells,"[3]; Bort pretreatment, 4 hrs post-DXR",attenuates DXR-induced DNA damage
same,DXR-induced DNA damage in granulosa and stromal cells,"[3]; Bort pretreatment, 12 hrs post-DXR",attenuates DXR-induced DNA damage
same,DXR-induced DNA damage in granulosa cells,"[3]; Bort pretreatment, 24 hrs post-DXR",attenuates DXR-induced DNA damage
same,DXR-induced DNA damage in oocytes,"[3]; Bort pretreatment, 24 hrs post-DXR injection",completely blocked DNA damage
same,"DXR-induced dsDNA breaks in all ovarian cell types (granulosa, stromal cells, oocytes)","[3]; Bort pretreatment, entire 24 hour acute insult period",completely prevented DXR-induced DNA damage; also recorded: blocked DXR-induced dsDNA breaks; also recorded: prevents DXR-induced dsDNA breaks; also recorded: prevented DXR-induced double strand DNA breaks
same,comet moment in stromal cells at 2 hrs,"[3]; Bort-DXR mice, 2 hrs, followed by a drop back to baseline",small rise in comet moment
same,DXR-induced dsDNA breaks in KK-15 cells (comet moment),KK-15 granulosa cells,prevented DNA damage
same,DXR-induced dsDNA breaks in KK-15 cells (comet moment),KK-15 granulosa cells; listed as Bortezomib,limited DXR-induced dsDNA breaks
same,protection of the kidney from cisplatin toxicity,kidney,shields the kidney from cisplatin toxicity
same,DXR fluorescence (accumulation) in the ovary,[4],dropped DXR fluorescence to baseline levels; also recorded: lack of chemo accumulation; also recorded: prevented DXR accumulation
"COc1cccc2c1C(=O)c1c(O)c3c(c(O)c1C2=O)C[C@@](O)(C(=O)CO)C[C@@H]3O[C@H]1C[C@H](N)[C@H](O)[C@H](C)O1 [DXR, Doxorubicin]","apoptotic index, antral follicles",mouse ovarian follicles [5]; 8 hrs post-DXR,100%
same,"apoptotic index, primary follicles",mouse ovarian follicles [5]; 12 hours post-DXR,12%
same,"apoptotic index, secondary follicles (plateau)",mouse ovarian follicles [5]; 12 hours post-DXR,40%
same,time of first apoptotic events in primordial follicles,mouse ovarian follicles [5]; post-DXR,48 h
same,LD50,KK-15 cells,50 nM
same,PTEN protein expression,"[1]; DXR alone, 6 hrs post-injection",appeared to decrease PTEN protein expression levels
same,phosphorylated AKT1 (pAKT1) levels,"[1]; DXR alone, 24 hrs post-injection",appeared to decrease levels of phosphorylated AKT1
same,γH2A.X phosphorylation (17 kDa band),"[1]; DXR alone, ovarian lysates 6 hrs post-injection",increased γH2A.X phosphorylation
same,apoptotic-positive secondary follicles,"mouse ovarian follicles [2]; DXR alone, 12 hrs",doubling of apoptotic-positive secondary follicles
same,"increase of DNA damage over control, granulosa cells",[6]; DXR,~2 fold
same,"maximal increase of DNA damage, stromal cells",[6]; DXR,50%
same,"time of first DNA damage, granulosa cells",[6]; post-injection,4 h
same,"time of first DNA damage, stromal/theca cells",[6]; post-injection,2 h
same,"time of first significant DNA damage over control, oocytes",[6]; post-injection,10 to 12 h
same,litter size relative to control,female CD-1 mice; 10 mg/kg DXR,50 % of control
same,decrease of pup birth weight compared to controls,female CD-1 mice; 10 mg/kg DXR i.p. to 4 week old females,17%
same,litter size,"female CD-1 mice; 10 mg/kg DXR, over mating rounds",5-8 pups/litter
same,"comet moment (dsDNA breaks), stromal cells",[3]; 20 mg/kg DXR i.p. alone,150 % control values
same,"comet moment (dsDNA breaks), granulosa cells","[3]; 20 mg/kg DXR i.p. alone, rise over 2-24 hrs post-injection",250 % control values
same,time to clearance from the blood stream,[7],15 to 30 min
same,ovulation rate relative to pre-DXR,[8],50%
CC(C)C[C@@H](C=O)NC(=O)[C@H](CC(C)C)NC(=O)[C@H](CC(C)C)NC(=O)OCc1ccccc1 [MG-132] (Cbz-Leu-Leu-Leu-aldehyde),DXR nuclear accumulation in L1210 cells,L1210 cells,prevent DXR nuclear accumulation
same,DXR-induced dsDNA breaks in KK-15 cells (comet moment),KK-15 granulosa cells,limited DXR-induced dsDNA breaks; also recorded: prevented DNA damage
same,DXR-induced DNA damage in H9C2 cells,[9],prevents DXR-induced DNA damage
